Patent publication US7855177B1, “Methods and kits for preventing hypoglycemia” (Cebix Inc., priority 2009, dated 2010)

How the values were obtained:
[1] = test system: type 1 diabetes patients with peripheral neuropathy; details: in vivo
Method: The safety measurements comprised collection of AEs, spontaneously reported by the patient or recorded by the investigator at each clinical visit. Review of laboratory investigations, vital signs, and physical examinations was performed at the S/B visit, visit 2, and at end of study (visit 4). ECG was performed at the S/B visit and at visit 4.
An AE was classified as “unexpected event” (i.e., if not specifically listed in the Investigator's Brochure) in terms of nature, severity, or frequency. All AEs, including intercurrent illnesses and increased severity or frequency of sign/symptoms of a concomitant disease was reported and documented as described below. AEs were documented on an “Adverse Event/Serious Adverse Event” page of the CRF and in the patient's medical records. Any AE occurring at any time after the end of the study, considered to be caused by the study medication—and therefore a possible adverse drug reaction—was reported to the sponsor.
The period of observation for AEs extended from the time the patient started on trial medication until end of the study. AEs were divided into the categories “serious” and “non-serious”. This determined the procedure used to report/document the AE.
Regardless of the classification of an AE as serious or non-serious (see above), its severity was assessed as mild, moderate, or severe, according to medical criteria alone:
Descriptive statistics were used for safety variables. For lab parameters summary statistics were presented as change from baseline and between doses. The changes from baseline were calculated and compared with normal ranges. The safety analysis set included all patients who obtained at least one dose of the investigational drug. AEs were coded according to the MedDRA dictionary. The frequencies of AEs are tabulated by body system and included/preferred term.

[2] = S.C.; cited from earlier work
[3] = Phase II trial: C-peptide plasma levels (time-resolved fluoroimmunoassay); format: in vivo, human
Method: The sampling of C-peptide in plasma at visits 2 and 4 coincided with the clinical visit and the time between the most recent administration of the trial drug and sampling varied between patients. Thereby, the result of C-peptide concentrations in plasma was less suitable for pharmacokinetic evaluations, but the results contributed to the assessment of treatment compliance.
C-peptide plasma levels were measured at baseline, and after 3 and 6 months of treatment. Analysis was performed by the Department of Clinical Chemistry Karolinska University Hospital, Solna using a time-resolved fluoroimmunoassay (AutoDelfia, Wallac Oy, Turku, Finland). […] The plasma levels of C-peptide attained in this study ranged from about 0.2 nM to a maximum of about 6 nM in the high dose group.
C-peptide plasma levels were also measured pre-dosing in the morning in 22 randomly selected patients at the Karolinska Hospital after 4.5 months of study treatment (visit 3). As compared to the C-peptide concentration at baseline, the C-peptide plasma level at this visit was unchanged in the placebo-treated patients (0±0.008 nmoL/L; n=10), increased by 0.045±0.092 nmoL/L in the low-dose C-peptide group (n=8) and increased by 0.13±0.083 nmoL/L in the high-dose C-peptide group (n=4).

[4] = test system: type 1 diabetes patients with peripheral neuropathy; assay: Phase II trial: hypoglycemic events and hypoglycemic coma; format: in vivo, human
Method: The study was a multicenter, double-blind, randomized, placebo-controlled phase II trial comparing the effect of subcutaneous injection (S.C.) of 500 nmoL/24 h (1.5 mg) C-peptide; 1,500 nmoL/24 h (4.5 mg) C-peptide and placebo treatment for 6 months in type 1 diabetes patients with peripheral neuropathy.
Hypoglycemic events are common events in insulin-treated patients. For practical reasons only severe hypoglycemic events, i.e., if the patient required assistance from another person in order to regain normoglycaemia, were reported as an AE.

C-peptide antibodies = assay: Phase II trial: antibody formation against C-peptide (ELISA); format: in vivo, human; details: baseline and after 3 and 6 months of C-peptide treatment
Source text: C-peptide plasma samples, C-peptide antibodies, and markers for atherosclerosis were processed (centrifuged, etc.) and stored frozen until transport to a central lab. HLA typing samples were shipped to a central lab for processing and storage until analysis. All samples there were labelled uniquely, including information about screening number and sample time.
Samples for the assessment of antibody formation were collected at baseline and at visits 2 and 4. An appropriate enzyme-linked immunoabsorbant assay (ELISA) method was developed and assessments carried out.

[5] = test system: type 1 diabetes patients with peripheral neuropathy; assay: Phase II trial: clinical laboratory evaluation (hematology, blood chemistry, urinalysis); format: in vivo, human; details: following the study treatment
Source text: Hematology: hemoglobin, hematocrit, mean cell volume, leukocytes, platelets, differential count
Blood chemistry: sodium, potassium, C-reactive protein (CRP), alanine transaminase, aspartate transaminase, serum creatinine, albumin
Urinanalysis: protein, blood, nitrite
Before starting the study, the investigator supplied the Sponsor with a list of the normal laboratory ranges and units of measurement for the laboratory variables to be determined during the study at the site. All abnormal laboratory (those out of the normal range) values required comments on the CRF, regardless of the clinical significance: […]

[6] = High-dose C-peptide, Metabolism and nutritional disorders
[7] = Low-dose C-peptide, Metabolism and nutritional disorders

## CC(C)C[C@H](NC(=O)[C@H](C)NC(=O)[C@H](CC(C)C)NC(=O)[C@@H]1CCCN1C(=O)[C@H](CCC(N)=O)NC(=O)[C@H](CC(C)C)NC(=O)[C@H](CO)NC(=O)CNC(=O)[C@H](C)NC(=O)CNC(=O)[C@@H]1CCCN1C(=O)CNC(=O)CNC(=O)CNC(=O)[C@H](CC(C)C)NC(=O)[C@H](CCC(=O)O)NC(=O)[C@@H](NC(=O)[C@H](CCC(N)=O)NC(=O)CNC(=O)[C@@H](NC(=O)[C@H](CCC(N)=O)NC(=O)[C@H](CC(C)C)NC(=O)[C@H](CC(=O)O)NC(=O)[C@H](CCC(=O)O)NC(=O)[C@H](C)NC(=O)[C@@H](N)CCC(=O)O)C(C)C)C(C)C)C(=O)N[C@@H](CCC(=O)O)C(=O)NCC(=O)N[C@@H](CO)C(=O)N[C@@H](CC(C)C)C(=O)N[C@@H](CCC(N)=O)C(=O)O [C-peptide]
[1]
  AEs possibly/probably related to the study drug: 8
  Acute HIV infection, number of AEs: 1
  Infections and infestations: Acute HIV infection, treatment emergent AE intensity (number of incidences): M (1)
  Infections and infestations: Herpes zoster, treatment emergent AE intensity (number of incidences): M (1)
  Nasopharyngitis, number of AEs: 23
[2]
  bioavailability of subcutaneously administered C-peptide: approximately 80%
[3]; high dose 1,500 nmoL/24 h S.C., expected
  expected concentrations relative to the low dose regimen: ~3 times
[3]; high-dose C-peptide group, n=4, 4.5 months (visit 3)
  increase of pre-dosing morning C-peptide plasma level vs baseline: 0.13 ± 0.083 nmol/L
[3]; low dose 500 nmoL/24 h S.C., 4 times daily, expected
  expected physiological mean plasma concentration: ~1 nmoL/L
[3]; low-dose C-peptide group, n=8, 4.5 months (visit 3)
  increase of pre-dosing morning C-peptide plasma level vs baseline: 0.045 ± 0.092 nmol/L
[4]; C-peptide treated group
  hypoglycemic coma episodes requiring external assistance: Two
[4]; C-peptide treated groups, 6 months, none in placebo group
  occurrences of hypoglycemic coma: four
[4]; [6]
  Blood glucose fluctuation, number of AEs: 0
  Hyperglycemia, number of AEs: 1
  Hyperlipidemia, number of AEs: 0
  Hypoglycemia, number of AEs: 5
  Hypoglycemia, number of AEs probably/possibly related to study drug: 1
  Hypoglycemic coma, number of AEs: 2
  Hypothyroidism, number of AEs: 0
  Increased appetite, number of AEs: 0
  Insulin sensitivity, number of AEs: 0
  Vitamin B12 deficiency, number of AEs: 1
[4]; [7]
  Blood glucose fluctuation, number of AEs: 0
  Hyperglycemia, number of AEs: 1 (1)
  Hyperglycemia, number of AEs probably/possibly related to study drug: 1 (1)
  Hyperlipidemia, number of AEs: 1
  Hypoglycemia, number of AEs: 2
  Hypoglycemia, number of AEs probably/possibly related to study drug: 1
  Hypoglycemic coma, number of AEs: 2
  Hypothyroidism, number of AEs: 0
  Increased appetite, number of AEs: 0
  Insulin sensitivity, number of AEs: 1 (1)
  Insulin sensitivity, number of AEs probably/possibly related to study drug: 1 (1)
  Vitamin B12 deficiency, number of AEs: 0
[4]; subpopulation of patients, C-peptide replacement therapy
  risk of hypoglycemic coma: increased risk of hypoglycemic coma
C-peptide antibodies
  reactivity (antibodies) to C-peptide: no or very weak reactivity
[5]
  changes in laboratory variables: no significant changes in any of the variables
